Reference: ChEMBL document CHEMBL1151637, “A flavone with antiinflammatory activity from the roots of Rhus undulata” (1984)
The source made the active and inactive calls. The rule behind the calls is not given here.

Key:
[1] = system: Rattus norvegicus; assay: Antiinflammatory activity against rat assessed as inhibition of carrageenan-induced edema; format: functional
[2] = system: Rattus norvegicus; assay: Antiinflammatory activity against rat assessed as inhibition of carrageenan-induced edema at 75 mg/kg; format: functional

SMILES | Activity [1] | inhibition in vivo at 75 mg/kg [2] [%] | ED25 [1] [mg/kg]
C[C@@H]1O[C@@H](O[C@H]2[C@H](Oc3cc(O)c4c(c3)O[C@H](c3ccc(O)cc3)CC4=O)O[C@H](CO)[C@@H](O)[C@@H]2O)[C@H](O)[C@H](O)[C@H]1O | inactive | – | –
COc1ccc(-c2cc(=O)c3c(O)cc(OC)cc3o2)cc1 [APIGENIN DIMETHYLETHER] | – | 25 | 75
C[C@]12CCC(=O)C=C1CC[C@@H]1[C@@H]2[C@@H](O)C[C@@]2(C)[C@H]1CC[C@]2(O)C(=O)COP(=O)(O)O [HYDROCORTISONE PHOSPHORIC ACID] | – | – | 13.5
COc1ccc(-c2cc(=O)c3c(OC)c(OC)c(OC)c(OC)c3o2)cc1OC [NOBILETIN] | – | – | 20
CCCCC1C(=O)N(c2ccccc2)N(c2ccccc2)C1=O [PHENYLBUTAZONE] | – | 81 | –
